Results on 14 compounds are retold here after patent publication US20240067632A1, “WEE1 Degrading Compounds and Uses Thereof” (Bristol-Myers Squibb Company, priority 2022, published 2024).

As a reminder, the EC50 is the concentration giving half of the maximal effect.

The subject of one assay is MKN45 cells. Description: MKN45 cell proliferation assay (Cell-Titer-Glo, 120 h). In kind it is cell-based. As to conditions: for EC50: Homo sapiens, MKN-45, 120 h, Cell-Titer-Glo, read-out: MKN45 Cell Prolif. 120 hr (EC50); for MKN45 Cell Prolif. 120 hr (Ymin-Obs): minimal percent of DMSO control observed in the concentrations tested. In short, it runs like this:
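Cells seeded at 400/well onto pre-printed 10-point half-log dilutions (top 1 or 10 uM, 0.1% DMSO final), in triplicate, and grown 120 h at 37 C. Viability by Cell-Titer-Glo luminescence, blank-subtracted and normalised to DMSO; EC50 from four-parameter logistic fit, with observed minimal % of control recorded as Ymin-obs.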

The target in a further assay is T1, WEE1 (Homo sapiens, UniProt P30291+Q96SW2).
T1 construct: C-terminal ePL-tagged (DiscoverX, Fremont, CA) full-length WEE1 expression construct; expressed in transfected cells; host or cells: LentiX-HEK293T (Invitrogen), lentiviral transduction; co-expressing GSPT1-GN (G576N, lacking the first 158 amino acids)
Description: WEE1-ePL degradation assay (LentiX-WEE1-ePL-GSPT1-ND cells, InCELL Hunter luminescence, 4 h). In kind it is cell-based. As to conditions: 293T-LentiX WEE1-ePL cells; for DC50: read-out: 293T-LentiX WEE1-ePL Degradation 4 hr (EC50). In short, it runs like this:
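HEK293T cells stably expressing C-terminal ePL-tagged full-length WEE1, 2500 cells/well, treated 4 h at 37° C with a 10-point 3-fold series from 1 or 10 uM. Remaining WEE1-ePL read by InCELL Hunter luminescence after 30 min. EC50 came from a four-parameter logistic fit, with Ymax set from DMSO control.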

The mark [1] stands for this setting: lower limit of the fit (0 = luciferase inhibitor, Ymax = DMSO control).
Where [2] appears, read: lower limit of the fit (Ymin=0 luciferase inhibitor, Ymax DMSO control).

Each structure is given as a SMILES string. Where two headings read alike, the source gives them in different places.

For `O=C1CCC(N2Cc3cc(O[C@H]4CCN(Cc5ccc6nc(C7CCOCC7)ccc6c5F)C4)ccc3C2=O)C(=O)N1` (stereo partly drawn) [3-(5-{[(3S)-1-{[5-fluoro-2-(oxan-4-yl)quinolin-6-yl]methyl}pyrrolidin-3-yl]oxy}-1-oxo-2,3-dihydro-1H-isoindol-2-yl)piperidine-2,6-dione], the EC50 with MKN45 cells (growth inhibition) stood at 1.29 nM. For the same compound, the “MKN45 Cell Prolif. 120 hr (Ymin-Obs)” value in the assay on MKN45 cells is reported as 10.02. The “293T-LentiX WEE1-ePL Degradation 4 hr (Ymin)” value at WEE1 (setting [1]) was determined as 32. Further, at WEE1, the DC50 came out at 1.33 nM.

For the compound `COCc1ccc2nc(CN3CC[C@H](Oc4ccc5c(c4)CN(C4CCC(=O)NC4=O)C5=O)C3)ccc2c1` (stereo partly drawn) [3-(5-{[(3S)-1-{[6-(methoxymethyl)quinolin-2-yl]methyl}pyrrolidin-3-yl]oxy}-1-oxo-2,3-dihydro-1H-isoindol-2-yl)piperidine-2,6-dione], the 50% effective concentration (EC50) with MKN45 cells (growth inhibition) is 89.6 nM. In addition, the “MKN45 Cell Prolif. 120 hr (Ymin-Obs)” value in the assay with MKN45 cells is recorded as 26.02. In addition, the “293T-LentiX WEE1-ePL Degradation 4 hr (Ymin)” value at WEE1 (setting [1]) turned out to be 46. The DC50 at WEE1 came out at 11.7 nM.

Take `O=C1CCC(N2Cc3cc(O[C@H]4CCN(Cc5cc6cc(C7CCOCC7)ccc6cn5)C4)ccc3C2=O)C(=O)N1` (stereo partly drawn) [3-(5-{[(3S)-1-{[6-(oxan-4-yl)isoquinolin-3-yl]methyl}pyrrolidin-3-yl]oxy}-1-oxo-2,3-dihydro-1H-isoindol-2-yl)piperidine-2,6-dione]: the EC50 in the assay with MKN45 cells (growth inhibition) is 12.3 nM. Further, the “MKN45 Cell Prolif. 120 hr (Ymin-Obs)” value in the assay on MKN45 cells amounted to 13.12. At WEE1 (setting [1]), the “293T-LentiX WEE1-ePL Degradation 4 hr (Ymin)” value stood at 33.5. The DC50 on WEE1 was determined as 5.55 nM.

With `CC(C)(O)c1ccc2cc(CN3CC[C@H](Oc4ccc5c(c4)CN(C4CCC(=O)NC4=O)C5=O)C3)ncc2c1` (stereo partly drawn) [3-(5-{[(3S)-1-{[7-(2-hydroxypropan-2-yl)isoquinolin-3-yl]methyl}pyrrolidin-3-yl]oxy}-1-oxo-2,3-dihydro-1H-isoindol-2-yl)piperidine-2,6-dione], the EC50 in the assay with MKN45 cells (growth inhibition) is 16.2 nM. Also, the “MKN45 Cell Prolif. 120 hr (Ymin-Obs)” value in the assay with MKN45 cells came to 7.18. Also, the “293T-LentiX WEE1-ePL Degradation 4 hr (Ymin)” value at WEE1 (setting [1]) is 31. Besides, the DC50 on WEE1 amounted to 5.41 nM.

Regarding `COC(C)(C)c1ccc2cc(CN3CC[C@H](Oc4ccc5c(c4)CN(C4CCC(=O)NC4=O)C5=O)C3)ncc2c1` (stereo partly drawn) [3-(5-{[(3S)-1-{[7-(2-methoxypropan-2-yl)isoquinolin-3-yl]methyl}pyrrolidin-3-yl]oxy}-1-oxo-2,3-dihydro-1H-isoindol-2-yl)piperidine-2,6-dione], the EC50 in the assay on MKN45 cells (growth inhibition) came to 6.04 nM. Further, in the assay with MKN45 cells, the “MKN45 Cell Prolif. 120 hr (Ymin-Obs)” value was found to be 11.51. Also, the “293T-LentiX WEE1-ePL Degradation 4 hr (Ymin)” value at WEE1 (setting [1]) was 32. Moreover, the DC50 at WEE1 was 1.21 nM.

On to `COCc1ccc2cc(CN3CC[C@H](Oc4ccc5c(c4)CN(C4CCC(=O)NC4=O)C5=O)C3)ncc2c1` (stereo partly drawn) [3-(5-{[(3S)-1-{[7-(methoxymethyl)isoquinolin-3-yl]methyl}pyrrolidin-3-yl]oxy}-1-oxo-2,3-dihydro-1H-isoindol-2-yl)piperidine-2,6-dione], for which the EC50 in the assay with MKN45 cells (growth inhibition) turned out to be 2.85 nM. In the assay on MKN45 cells, the “MKN45 Cell Prolif. 120 hr (Ymin-Obs)” value is reported as 8.95. On WEE1 (setting [1]), the “293T-LentiX WEE1-ePL Degradation 4 hr (Ymin)” value worked out at 30. The DC50 at WEE1 was found to be 1.42 nM.

As to `CNc1ccc2cc(CN3CC[C@H](Oc4ccc5c(c4)CN(C4CCC(=O)NC4=O)C5=O)C3)ncc2c1` (stereo partly drawn) [3-(5-{[(3S)-1-{[7-(methylamino)isoquinolin-3-yl]methyl}pyrrolidin-3-yl]oxy}-1-oxo-2,3-dihydro-1H-isoindol-2-yl)piperidine-2,6-dione], the EC50 with MKN45 cells (growth inhibition) worked out at 42.1 nM. In the assay on MKN45 cells, the “MKN45 Cell Prolif. 120 hr (Ymin-Obs)” value is 12.46. Further, the “293T-LentiX WEE1-ePL Degradation 4 hr (Ymin)” value on WEE1 (setting [1]) is listed as 32. For the same compound, the DC50 on WEE1 turned out to be 9.01 nM.

As to `O=C1CCC(N2Cc3cc(O[C@H]4CCN(Cc5cc6ccc(N7CCOCC7)cc6cn5)C4)ccc3C2=O)C(=O)N1` (stereo partly drawn) [3-(5-{[(3S)-1-{[7-(morpholin-4-yl)isoquinolin-3-yl]methyl}pyrrolidin-3-yl]oxy}-1-oxo-2,3-dihydro-1H-isoindol-2-yl)piperidine-2,6-dione], in the assay on MKN45 cells (growth inhibition), the 50% effective concentration (EC50) stood at 3.17 nM. Moreover, the “MKN45 Cell Prolif. 120 hr (Ymin-Obs)” value with MKN45 cells stood at 6.72. Further, the “293T-LentiX WEE1-ePL Degradation 4 hr (Ymin)” value at WEE1 (setting [1]) is reported as 36. Further, the DC50 on WEE1 was found to be 3.82 nM.

Regarding `O=C1CCC(N2Cc3cc(O[C@H]4CCN(Cc5cc6ccc(C7CCOCC7)cc6cn5)C4)ccc3C2=O)C(=O)N1` (stereo partly drawn) [3-(5-{[(3S)-1-{[7-(oxan-4-yl)isoquinolin-3-yl]methyl}pyrrolidin-3-yl]oxy}-1-oxo-2,3-dihydro-1H-isoindol-2-yl)piperidine-2,6-dione], in the assay with MKN45 cells (growth inhibition), the concentration for a half-maximal effect (EC50) amounted to 2.09 nM. Further, the “MKN45 Cell Prolif. 120 hr (Ymin-Obs)” value in the assay on MKN45 cells worked out at 8.822. Further, the “293T-LentiX WEE1-ePL Degradation 4 hr (Ymin)” value on WEE1 (setting [1]) is reported as 29.75. The DC50 at WEE1 stood at 1.46 nM.

Consider `O=C1CCC(N2Cc3cc(O[C@H]4CCN(Cc5cc(F)c6nc(C7CCOCC7)ccc6c5)C4)ccc3C2=O)C(=O)N1` (stereo partly drawn) [3-(5-{[(3S)-1-{[8-fluoro-2-(oxan-4-yl)quinolin-6-yl]methyl}pyrrolidin-3-yl]oxy}-1-oxo-2,3-dihydro-1H-isoindol-2-yl)piperidine-2,6-dione], for which the EC50 in the assay with MKN45 cells (growth inhibition) turned out to be 1.09 nM. Besides, the “MKN45 Cell Prolif. 120 hr (Ymin-Obs)” value with MKN45 cells was determined as 7.098. Further, the “293T-LentiX WEE1-ePL Degradation 4 hr (Ymin)” value on WEE1 (setting [1]) came to 28. Also, the DC50 at WEE1 is 1.24 nM.

Take `C[C@@H]1CN(Cc2ccc3nc([C@@H]4CCOC(C)(C)C4)ccc3c2)C[C@H]1Oc1ccc2c(c1)CN(C1CCC(=O)NC1=O)C2=O` (stereo partly drawn) [3-(5-{[(3S,4R)-1-({2-[(4R)-2,2-dimethyloxan-4-yl]quinolin-6-yl}methyl)-4-methylpyrrolidin-3-yl]oxy}-1-oxo-2,3-dihydro-1H-isoindol-2-yl) piperidine-2,6-dione]: in the assay on MKN45 cells (growth inhibition), the concentration for a half-maximal effect (EC50) came out at 4.65 nM. Also, the “MKN45 Cell Prolif. 120 hr (Ymin-Obs)” value with MKN45 cells was found to be 9.178. Moreover, the “293T-LentiX WEE1-ePL Degradation 4 hr (Ymin)” value at WEE1 (setting [1]) turned out to be 27.43. At WEE1, the DC50 stood at 4.25 nM.

For `C[C@@H]1CN(Cc2ccc3nc([C@H]4CCOC(C)(C)C4)ccc3c2)C[C@H]1Oc1ccc2c(c1)CN(C1CCC(=O)NC1=O)C2=O` (stereo partly drawn) [3-(5-{[(3S,4R)-1-({2-[(4S)-2,2-dimethyloxan-4-yl]quinolin-6-yl}methyl)-4-methylpyrrolidin-3-yl]oxy}-1-oxo-2,3-dihydro-1H-isoindol-2-yl)piperidine-2,6-dione], the EC50 in the assay on MKN45 cells (growth inhibition) came to 0.918 nM. The “MKN45 Cell Prolif. 120 hr (Ymin-Obs)” value in the assay on MKN45 cells was 8.183. The “293T-LentiX WEE1-ePL Degradation 4 hr (Ymin)” value on WEE1 (setting [1]) is 24.37. Also, the DC50 at WEE1 was 1.94 nM.

In the case of `C[C@@H]1CN(Cc2cc(F)c3nc([C@H]4CCOC4)ccc3c2)C[C@H]1Oc1ccc2c(c1)CN(C1CCC(=O)NC1=O)C2=O` (stereo partly drawn) [3-(5-{[(3S,4R)-1-({8-fluoro-2-[(3R)-oxolan-3-yl]quinolin-6-yl}methyl)-4-methylpyrrolidin-3-yl]oxy}-1-oxo-2,3-dihydro-1H-isoindol-2-yl)piperidine-2,6-dione], in the assay with MKN45 cells, the EC50 is 1.3 nM and the “MKN45 Cell Prolif. 120 hr (Ymin-Obs)” value was determined as 8.038. Moreover, the “293T-LentiX WEE1-ePL Degradation 4 hr (Ymin)” value at WEE1 (setting [2]) is reported as 30.53. The DC50 on WEE1 came out at 1.56 nM.

For the compound `O=C1CCC(N2Cc3cc(O[C@@H]4CN(Cc5ccc6nc(C7CCOCC7)ccc6c5)C[C@H]4C(F)(F)F)ccc3C2=O)C(=O)N1` (stereo partly drawn) [3-(5-{[(3S,4R)-1-{[2-(oxan-4-yl)quinolin-6-yl]methyl}-4-(trifluoromethyl)pyrrolidin-3-yl]oxy}-1-oxo-2,3-dihydro-1H-isoindol-2-yl)piperidine-2,6-dione], in the assay on MKN45 cells, the EC50 was 26.8 nM and the “MKN45 Cell Prolif. 120 hr (Ymin-Obs)” value was 28.55. Besides, the “293T-LentiX WEE1-ePL Degradation 4 hr (Ymin)” value at WEE1 (setting [2]) worked out at 35.15. Moreover, the DC50 on WEE1 worked out at 13.1 nM.
